Data taken from patent US20240148710A1, “INHIBITORS OF CYTOCHROME P450 FAMILY 7 SUBFAMILY B MEMBER 1 (CYP7B1) FOR USE IN MOBILIZATION OF HEMATOPOIETIC STEM AND PROGENITOR CELLS” (priority 2022, published 2024).
“Also recorded” adds a separate entry of the source.

Columns and labels:
colony-forming HSPCs [1] = assay: Mobilization of colony-forming HSPCs into the peripheral blood of mice (CFU count of PBMCs in methylcellulose culture); format: in vivo, C57BL/6 mice; conditions: 50 mg/kg/day oral gavage for 4 days, AMD3100 s.c. one hour before analyses, no G-CSF; trends; FIGS. 5A, 5B
HSCs [2] = assay: HSC proliferation and mobilization in mice treated with ERα ligands; format: in vivo; conditions: E2: male mice and non-pregnant females
Excerpt: However, the mechanism by which E2 and 27HC, two endogenous ERα ligands, differentially regulate HSCs is unknown. […] E2 levels increase during pregnancy, when extramedullary hematopoiesis (EMH) is induced to increase the production of red blood cells. In addition to increased HSC proliferation, EMH during pregnancy requires increased HSC mobilization, which the present inventors found to also depend on ERα in HSCs. […] Thus, through their differential effects on HSC behavior in vivo—E2 and 27HC act in concert to promote hematopoiesis during pregnancy.

HSCs [3] = conditions: recently demonstrated; cited from earlier work
colony-forming HSPCs [4] = assay: Mobilization of colony-forming HSPCs into the peripheral blood of mice (CFU count of PBMCs in methylcellulose culture); format: in vivo, C57BL/6 mice
Procedure: To test whether co-administration of 27HC with G-CSF plus another clinically-used HSC mobilizing agent, AMD3100 (a CXCR4 chemokine receptor antagonist that is also known as plerixafor), further enhances HSC mobilization. Two-month-old C57BL/6 mice were treated with a single agent alone, a combination of two agents (27HC+AMD3100, or G-CSF+AMD3100), all three agents combined, or vehicle alone (2-hydroxypropyl-β-cyclodextrin for 27HC, PBS for G-CSF, and PBS for AMD3100).
(§1) Mice were treated with 27HC (10 mg/kg/day) and/or G-CSF (250 μg/kg/day) for 4 days and then treated with AMD3100 (5 mg/kg) one hour before the peripheral blood collection (FIG. 1). Peripheral blood mononuclear cells (PBMCs) were isolated by density gradient centrifugation, and were seeded in the methylcellulose culture medium. Colonies were counted after 12 days of culture.
(§2) This experiment was performed as described in Example 1, except, clotrimazole (50 mg/kg/day) was used instead of 27HC.

colony-forming HSPCs [5] = assay: Mobilization of colony-forming HSPCs into the peripheral blood of sickle cell model mice (CFU count); format: in vivo, sickle cell model mice (Townes model mice); conditions: clotrimazole 50 mg/kg/day i.p. for 4 days, AMD3100 s.c. one hour before analyses, FIGS. 4A, 4B
Procedure: as §1, §2

colony-forming HSPCs [6] = conditions: AMD3100 s.c. injection; cited from earlier work

SMILES	CFUs (including CFU-gmEM) in the peripheral blood, two-agent combination with AMD3100 versus AMD3100 single agent (colony-forming HSPCs [1])	Effect of administration on HSC proliferation and mobilization (found by the present inventors) (HSCs [2])	Effect of treatment of mice on HSC proliferation and mobilization (HSCs [3])	also measured
C[C@@H](c1ncncc1F)[C@](O)(Cn1cncn1)c1ccc(F)cc1F [voriconazole]	generated more CFUs, including CFU-gmEM, than the single-agent AMD3100 treatment	–	–	–
C[C@]12CC[C@@H]3c4ccc(O)cc4CC[C@H]3[C@@H]1CC[C@@H]2O [E2, 17β-estradiol]	–	induces HSC proliferation but not mobilization	induces HSC proliferation but not mobilization	–
C[C@@H](CO)CCC[C@@H](C)[C@H]1CC[C@H]2[C@@H]3CC=C4C[C@@H](O)CC[C@]4(C)[C@H]3CC[C@]12C [27HC, 27-hydroxycholesterol]	–	induces HSC mobilization (but not proliferation)	induces ERα-dependent HSC mobilization but not proliferation	CFUs (including CFU-gmEM) in the peripheral blood, three-agent combination with G-CSF and AMD3100 versus G-CSF and AMD3100 (colony-forming HSPCs [4]; 27HC 10 mg/kg/day and G-CSF 250 μg/kg/day s.c. for 4 days, AMD3100 5 mg/kg one hour before collection, FIGS. 2C, 2D): significantly more CFUs, including CFU-gmEM, than the two-agent combination treatment with G-CSF and AMD3100; also recorded: mobilized more colony-forming HSPCs as compared to a single agent alone or a combination of two agents; CFUs in the peripheral blood, two-agent combination with AMD3100 versus AMD3100 single agent (colony-forming HSPCs [4]; 27HC 10 mg/kg/day s.c. for 4 days, AMD3100 5 mg/kg s.c. one hour before blood collection, FIGS. 2A, 2B): significantly more CFUs than the AMD3100 single-agent treatment; also recorded: mobilized colony-forming HSPCs significantly more than AMD3100 alone; HSC mobilization on treating mice with 27HC (colony-forming HSPCs [4]; FIG. 2): promotes HSC mobilization
CC(C)(C(=O)c1cccnc1)c1cccnc1 [metyrapone]	generated more CFUs, including CFU-gmEM, than the single-agent AMD3100 treatment	–	–	–
Clc1ccccc1C(c1ccccc1)(c1ccccc1)n1ccnc1 [clotrimazole]	synergistic effects with the single-agent AMD3100 treatment	–	–	CFUs (including CFU-gmEM) in the peripheral blood, three-agent combination with G-CSF and AMD3100 versus G-CSF and AMD3100 (colony-forming HSPCs [4]; clotrimazole 50 mg/kg/day i.p. for 4 days, G-CSF s.c. for 4 days, AMD3100 one hour before analyses, FIGS. 3C, 3D): more CFUs, including CFU-gmEM, than the two-agent combination treatment with G-CSF and AMD3100; CFUs in the peripheral blood, two-agent combination with AMD3100 versus AMD3100 single agent (colony-forming HSPCs [4]; clotrimazole 50 mg/kg/day i.p., AMD3100 s.c. one hour before analyses, FIGS. 3A, 3B): significantly more CFUs than the single-agent AMD3100 treatment; CFUs (including CFU-gmEM) in the peripheral blood, two-agent combination with AMD3100 versus AMD3100 single agent (colony-forming HSPCs [5]): significantly more CFUs, including CFU-gmEM, than the single-agent AMD3100 treatment
c1cc(CN2CCCNCCNCCCNCC2)ccc1CN1CCCNCCNCCCNCC1 [AMD3100]	–	–	–	Time of peak mobilization of HSCs after AMD3100 injection (colony-forming HSPCs [6]): one hour post administration
